According to patent US7094911B2, “Biphenyl and biphenyl-analogous compounds as integrin antagonists” (Bayer Aktiengesellschaft, priority 1998, dated 2006):

SMILES | melting point
O=C(NCc1ccccc1)Nc1cccc(-c2ccc(C[C@H](NS(=O)(=O)CCCC(F)(F)F)C(=O)O)cc2)c1 [Example 1.161] | 163 °C
O=C(Nc1cccc(-c2ccc(C[C@H](NS(=O)(=O)CCCC(F)(F)F)C(=O)O)cc2)c1)NC1CC1 [Example 1.162] | 202 °C
COc1ccc2[nH]/c(=N\C(=O)Nc3cccc(-c4ccc(C[C@H](NS(=O)(=O)c5c(C)cc(C)cc5C)C(=O)O)cc4)c3)[nH]c2c1 [Example 1.188] | 215 °C
Cc1cc(C)c(S(=O)(=O)N[C@@H](Cc2ccc(-c3cccc(NC(=O)/N=c4\[nH]c5ccc(C(=O)O)cc5[nH]4)c3)cc2)C(=O)O)c(C)c1 [Example 1.189] | 256 °C (dec.)
Cc1cc(C)c(S(=O)(=O)N[C@@H](Cc2ccc(-c3cccc(NC(=O)N=c4[nH]c5cc(C)c(C)cc5[nH]4)c3)cc2)C(=O)O)c(C)c1 [Example 1.190] | 202 °C
Cc1cc(C)c(S(=O)(=O)NC(Cc2cccc(-c3cccc(NC(=O)NC4CC4)c3)c2)C(=O)O)c(C)c1 (stereo not shown) [Example 1.191] | 214 °C
CCCNC(=O)Nc1cccc(-c2cccc(CC(NS(=O)(=O)c3c(C)cc(C)cc3C)C(=O)O)c2)c1 (stereo not shown) [Example 1.192] | 136 °C
Cc1cc(C)c(S(=O)(=O)NC(Cc2cccc(-c3cccc(NC(=O)NCc4ccccn4)c3)c2)C(=O)O)c(C)c1 (stereo not shown) [Example 1.193] | 118 °C
Cc1cc(C)c(S(=O)(=O)NC(Cc2cccc(-c3cccc(NC(=O)Nc4ccncc4)c3)c2)C(=O)O)c(C)c1 (stereo not shown) [Example 1.194] | 207 °C
Cc1cc(C)c(S(=O)(=O)N[C@@H](Cc2ccc(-c3cccc(NC(=O)Nc4nc5cc(Cl)ccc5o4)c3)cc2)C(=O)O)c(C)c1 [Example 1.195] | 220 °C
Cc1cc(C)c(S(=O)(=O)N[C@@H](Cc2ccc(-c3cccc(NC(=O)Nc4nc5ccc(C)cc5o4)c3)cc2)C(=O)O)c(C)c1 [Example 1.196] | 213 °C
Cc1cc(C)c(S(=O)(=O)N[C@@H](Cc2ccc(-c3cccc(NC(=O)Nc4nc5ccccc5s4)c3)cc2)C(=O)O)c(C)c1 [Example 1.197] | 198 °C
Cc1cc(C)c(S(=O)(=O)N[C@@H](Cc2ccc(-c3cccc(NC(=O)Nc4nccs4)c3)cc2)C(=O)O)c(C)c1 [Example 1.198] | 212 °C
Cc1cc(C)c(S(=O)(=O)N[C@@H](Cc2ccc(-c3cccc(NC(=O)Nc4nc5ccc(C)cc5s4)c3)cc2)C(=O)O)c(C)c1 [Example 1.199] | 220 °C
COc1ccc2nc(NC(=O)Nc3cccc(-c4ccc(C[C@H](NS(=O)(=O)c5c(C)cc(C)cc5C)C(=O)O)cc4)c3)sc2c1 [Example 1.200] | 225 °C
Cc1cc(C)c(S(=O)(=O)NC(Cc2cccc(-c3ccc(NC(=O)Nc4ccncc4)cc3)c2)C(=O)O)c(C)c1 (stereo not shown) [Example 1.201] | 188 °C
Cc1cc(C)c(S(=O)(=O)NC(Cc2cccc(-c3ccc(NC(=O)N=c4[nH]c5ccccc5[nH]4)cc3)c2)C(=O)O)c(C)c1 (stereo not shown) [Example 1.202] | 193 °C
CCCNC(=O)Nc1ccc(-c2cccc(CC(NS(=O)(=O)c3c(C)cc(C)cc3C)C(=O)O)c2)cc1 (stereo not shown) [Example 1.203] | 119 °C
Cc1cc(C)c(S(=O)(=O)N[C@@H](Cc2ccc(-c3cccc(NC(=O)Nc4nncs4)c3)cc2)C(=O)O)c(C)c1 [Example 1.204] | 202 °C
Cc1cc(C)c(S(=O)(=O)N[C@@H](Cc2ccc(-c3cccc(N)c3)cc2)C(=O)O)c(C)c1 [Example 1.205] | 289 °C
Cc1cc(C)c(S(=O)(=O)N[C@@H](Cc2ccc(-c3cccc(NC(=O)NCC(F)(F)F)c3)cc2)C(=O)O)c(C)c1 [Example 1.206] | 124 °C

SMILES | melting point
Cc1cc(C)c(S(=O)(=O)N[C@@H](Cc2ccc(-c3cccc(NC(=O)NCCSC(F)(F)F)c3)cc2)C(=O)O)c(C)c1 [Example 1.207] | 138 °C
Cc1cc(C)c(S(=O)(=O)N[C@@H](Cc2ccc(-c3cccc(NC(=O)Nc4cc(C)on4)c3)cc2)C(=O)O)c(C)c1 [Example 1.208] | 189 °C
Cc1cc(C)c(S(=O)(=O)N[C@@H](Cc2ccc(-c3cccc(NC(=O)Nc4cc(C(C)(C)C)on4)c3)cc2)C(=O)O)c(C)c1 [Example 1.209] | 180 °C
Cc1cc(C)c(S(=O)(=O)N[C@@H](Cc2ccc(-c3cccc(NC(=O)N=c4[nH]c5ccccc5[nH]4)c3)cc2)C(=O)O)c(C)c1 [Example 1.210] | 207 °C
Cc1cc(C)c(S(=O)(=O)N[C@@H](Cc2ccc(-c3cccc(NC(=O)NCC(F)(F)C(F)(F)F)c3)cc2)C(=O)O)c(C)c1 [Example 1.211] | 126 °C
Cc1cc(C)c(S(=O)(=O)N[C@@H](Cc2ccc(-c3cccc(NC(=O)NCc4ccc(C(F)(F)F)cc4)c3)cc2)C(=O)O)c(C)c1 [Example 1.212] | 154 °C
CC1(C)C2CC[C@@]1(CS(=O)(=O)N[C@@H](Cc1ccc(-c3ccc(NC(=O)NCc4ccccn4)cc3)cc1)C(=O)O)C(=O)C2 [Example 1.213] | 202 °C
CC1(C)C2CC[C@@]1(CS(=O)(=O)N[C@@H](Cc1ccc(-c3ccc(NC(=O)Nc4ccncc4)cc3)cc1)C(=O)O)C(=O)C2 [Example 1.214] | 207 °C
CC1(C)C2CC[C@@]1(CS(=O)(=O)N[C@@H](Cc1ccc(-c3ccc(NC(=O)N=c4[nH]c5ccccc5[nH]4)cc3)cc1)C(=O)O)C(=O)C2 [Example 1.215] | 222 °C
O=C(O)CNS(=O)(=O)c1cccc(-c2cccc(NC(=O)Nc3nc4ccccc4[nH]3)c2)c1 [Example 4.38] | 172 °C
O=C(O)CC(NS(=O)(=O)c1cccc(-c2cccc(NC(=O)NC3CC3)c2)c1)c1cccnc1 (stereo not shown) [Example 4.39] | 144 °C
O=C(O)CC(NS(=O)(=O)c1cccc(-c2cccc(NC(=O)NCc3ccccn3)c2)c1)c1cccnc1 (stereo not shown) [Example 4.40] | 176 °C
O=C(O)CC(NS(=O)(=O)c1cccc(-c2cccc(NC(=O)Nc3nc4ccccc4[nH]3)c2)c1)c1cccnc1 (stereo not shown) [Example 4.41] | 170 °C
CCCCNC(=O)Nc1cccc(-c2ccc(OC)c(S(=O)(=O)NC(CC(=O)O)c3ccccc3)c2)c1 (stereo not shown) [Example 4.63] | 190 °C
COc1ccc(-c2ccc(NC(=O)NCCc3ccccn3)cc2)cc1S(=O)(=O)NC(CC(=O)O)c1ccccc1 (stereo not shown) [Example 4.64] | 137 °C
CCCCNC(=O)Nc1ccc(-c2ccc(OC)c(S(=O)(=O)NC(CC(=O)O)c3ccccc3)c2)cc1 (stereo not shown) [Example 4.65] | 125 °C
COc1ccc(-c2ccc(NC(=O)NCc3ccncc3)cc2)cc1S(=O)(=O)NC(CC(=O)O)c1ccccc1 (stereo not shown) [Example 4.66] | 145 °C
COc1ccc(-c2ccc(NC(=O)NCc3cccnc3)cc2)cc1S(=O)(=O)NC(CC(=O)O)c1ccccc1 (stereo not shown) [Example 4.67] | 161 °C
COc1ccc(-c2ccc(NC(=O)NC(C)C)cc2)cc1S(=O)(=O)NC(CC(=O)O)c1ccccc1 (stereo not shown) [Example 4.68] | 115 °C
COc1ccc(-c2ccc(NC(=O)NCc3ccccn3)cc2)cc1S(=O)(=O)NC(CC(=O)O)c1ccccc1 (stereo not shown) [Example 4.69] | 158 °C
COc1ccc(-c2ccc(NC(=O)NCc3ccccc3)cc2)cc1S(=O)(=O)NC(CC(=O)O)c1ccccc1 (stereo not shown) [Example 4.70] | 150 °C

SMILES | melting point
CCNC(=O)Nc1ccc(-c2ccc(OC)c(S(=O)(=O)NC(CC(=O)O)c3ccccc3)c2)cc1 (stereo not shown) [Example 4.71] | 134 °C
COc1ccc(-c2ccc(NC(=O)NCC(C)C)cc2)cc1S(=O)(=O)NC(CC(=O)O)c1ccccc1 (stereo not shown) [Example 4.72] | 126 °C
CCNC(=O)Nc1cccc(-c2ccc(OC)c(S(=O)(=O)NC(CC(=O)O)c3ccccc3)c2)c1 (stereo not shown) [Example 4.73] | > 250 °C
COc1ccc(-c2ccc(NC(=O)N=c3[nH]c4ccccc4[nH]3)cc2)cc1S(=O)(=O)NC(CC(=O)O)c1ccccc1 (stereo not shown) [Example 4.74] | 209 °C
COc1ccc(-c2ccc(NC(=O)Nc3cccnc3)cc2)cc1S(=O)(=O)NC(CC(=O)O)c1ccccc1 (stereo not shown) [Example 4.75] | 188 °C
COc1ccc(-c2ccc(NC(=O)NC3CC3)cc2)cc1S(=O)(=O)NC(CC(=O)O)c1ccccc1 (stereo not shown) [Example 4.76] | 234 °C
COc1ccc(-c2cccc(NC(=O)NC3CC3)c2)cc1S(=O)(=O)NCC(=O)O [Example 4.77] | 128 °C
C[C@H](NS(=O)(=O)c1cccc(-c2cccc(NC(=O)N=c3[nH]c4ccccc4[nH]3)c2)c1)C(=O)O [Example 4.80] | 218 °C
CCCNC(=O)Nc1cccc(-c2cccc(S(=O)(=O)N[C@H](C)C(=O)O)c2)c1 [Example 4.81] | 126 °C
C[C@@H](NS(=O)(=O)c1cccc(-c2cccc(NC(=O)NCc3ccccn3)c2)c1)C(=O)O [Example 4.82] | 149 °C
C[C@@H](NS(=O)(=O)c1cccc(-c2cccc(NC(=O)N=c3[nH]c4ccccc4[nH]3)c2)c1)C(=O)O [Example 4.83] | 158 °C
C[C@@H](NS(=O)(=O)c1cccc(-c2cccc(NC(=O)Nc3ccncc3)c2)c1)C(=O)O [Example 4.84] | 169 °C
COc1ccc(-c2cccc(NC(=O)NCC(F)(F)C(F)(F)F)c2)cc1S(=O)(=O)NC(CC(=O)O)c1ccccc1 (stereo not shown) [Example 4.85] | 147 °C
COc1ccc(-c2cccc(NC(=O)N=c3[nH]cc[nH]3)c2)cc1S(=O)(=O)NC(CC(=O)O)c1ccccc1 (stereo not shown) [Example 4.86] | 209 °C
CCCCNC(=O)Nc1cccc(-c2ccc(OC)c(S(=O)(=O)N[C@H](CC(=O)O)c3ccccc3)c2)c1 [Example 4.87] | 122 °C (dec.)
COc1ccc(-c2cccc(NC(=O)N=c3[nH]c4ccccc4[nH]3)c2)cc1S(=O)(=O)N[C@H](CC(=O)O)c1ccccc1 [Example 4.88] | 151 °C (dec.)
COc1ccc(-c2cccc(NC(=O)NCc3cccnc3)c2)cc1S(=O)(=O)N[C@H](CC(=O)O)c1ccccc1 [Example 4.89] | 224 °C (dec.)
COc1ccc(-c2cccc(NC(=O)NCc3ccc(C(F)(F)F)cc3)c2)cc1S(=O)(=O)N[C@H](CC(=O)O)c1ccccc1 [Example 4.90] | 111 °C (dec.)
O=C(O)C[C@@H](NS(=O)(=O)c1cccc(-c2cccc(NC(=O)N=c3[nH]c4ccccc4[nH]3)c2)c1)c1ccccc1 [Example 4.91] | 189 °C
